Assay [1] deals with human vanin-1 (Homo sapiens (Human), UniProt O95497). As to the kind of experiment: Human Vanin-1 Enzyme Assay 1. The class given is biochemical. As to conditions: 25 pM human vanin-1, 50 uM pantetheine 7-amino-4-trifluoromethylcoumarin substrate. How it is done:
Human Vanin-1Enzyme Assay 1.
The in vitro assay measures enzymatic cleavage of the fluorescently-labeled vanin substrate, pantetheine 7-amino-4-trifluoromethylcoumarin, by human vanin-1.
The vanin-1 protein was prepared in-house from a construct expressing the extracellular domain of human vanin-1 (GenBank ID NM_004666) preceded N-terminally by the honey bee melittin signal peptide, a GSG linker sequence, a His6× tag and a FLAG tag. The secreted, soluble enzyme was purified from the conditioned medium from a CHO cell line stably expressing the resulting protein. Enzyme purification was performed through sequential Ni NTA and size-exclusion chromatography steps.
Intermediate concentrations were prepared by diluting in DMSO in a four-fold series for a total of 11 data points.
To begin the assay 100 nL was transferred from the compound plate to the assay plate. Next, 15 μL of the vanin-1 working solution were transferred to the assay plate. The inhibitor and enzyme were incubated at room temperature for 30 minutes. The enzyme reaction was then initiated by the addition of 5 μL of 200 μM pantetheine 7-amino-4-trifluoromethylcoumarin prepared in assay buffer. […] The final concentration of DMSO was 0.5%.

Assay [2] has as its target human vanin-1 present in human plasma (Homo sapiens (Human), UniProt O95497). As to the kind of experiment: Vanin-1 in Human Plasma Assay. As to conditions: 50% pooled human plasma, 50 uM substrate. The class given is biochemical. Here is the method:
Vanin-1 in Human Plasma Assay.
The in vitro assay measures enzymatic cleavage of the fluorescently-labeled vanin substrate, pantetheine 7-amino-4-trifluoromethylcoumarin, by human vanin-1 present in human plasma.
Human plasma was prepared from whole blood drawn from healthy donors, collected in tubes containing sodium heparin. The plasma fractions were separated from the whole blood by centrifugation for 10 minutes at 2000×g and pooled.
The test inhibitors were solubilized in DMSO to a stock concentration of 30 mM. On the day of the assay, dose response plates were prepared by diluting the inhibitors in DMSO to a compound concentration 200-fold the final in-assay concentration. Concentration series were prepared by serially diluting in 100% DMSO in a three-fold series. […] From this intermediate compound plate, 10 μL were transferred to the assay plate and mixed with 20 uL of the pooled human plasma. The inhibitor and enzyme were co-incubated at room temperature for 30 minutes. The enzyme reaction was initiated by the addition of 10 μL of 200 uM pantetheine 7-amino-4-trifluoromethylcoumarin prepared in assay buffer. The final concentrations in the assay were 50% plasma, and 50 uM substrate. The final concentration of DMSO was 0.5%. Datapoints were measured over time using a Tecan Safire 2 platereader at 405 nm excitation wavelength and a 510 nm emission wavelength for detection.

The structures appear in SMILES notation.

Chain of human vanin-1 present in human plasma (O95497 22-491): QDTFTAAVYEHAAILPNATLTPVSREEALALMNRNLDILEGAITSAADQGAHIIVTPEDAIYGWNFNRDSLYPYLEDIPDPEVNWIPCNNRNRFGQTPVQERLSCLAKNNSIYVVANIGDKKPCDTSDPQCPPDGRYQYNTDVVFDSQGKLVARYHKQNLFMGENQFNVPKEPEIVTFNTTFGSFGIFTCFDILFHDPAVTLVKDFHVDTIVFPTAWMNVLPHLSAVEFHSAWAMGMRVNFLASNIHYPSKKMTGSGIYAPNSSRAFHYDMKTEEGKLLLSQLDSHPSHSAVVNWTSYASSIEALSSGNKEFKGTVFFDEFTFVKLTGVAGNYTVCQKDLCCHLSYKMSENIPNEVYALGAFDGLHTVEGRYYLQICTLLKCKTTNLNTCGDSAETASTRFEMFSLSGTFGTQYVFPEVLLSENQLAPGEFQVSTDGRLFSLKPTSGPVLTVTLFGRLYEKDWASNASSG
Chain of human vanin-1 (O95497 22-491): as above

`O=C(c1cnc(NC2(c3cnccn3)CC2)nc1)N1CC2(CCOCC2)C1` [Example 158]: the IC50 was determined as 1.11 nM in assay [1] and 2.03 nM in assay [2]. For the compound `N#CC1CCCN(C(=O)c2cnc(NC3(c4cncnc4)CC3)nc2)C1` (single isomer, unassigned) [Example 196], the results for the IC50 in assay [1] and in assay [2] were 1180 nM and more than 793 nM, respectively. On the same counts, the results for `O=C(c1cnc(NC2(c3cncnc3)CCC2)nc1)N1CC2(CCOCC2)C1` [Example 174] are 0.293 nM and 0.905 nM. On the same counts, the results for `O=C(c1cnc(NC2(c3ncccn3)CC2)nc1)N1CC2(CCOCC2)C1` [Example 179] are 7.33 nM and 14.4 nM.

`O=C(c1cnc(NC2(c3cncnc3)CCC2)nc1)N1CCC2(CCOCC2)C1` [Example 173]: the results for the IC50 in assay [1] and in assay [2] were 0.116 nM and 1.61 nM, respectively.

Regarding `CC(C)(Nc1ncc(C(=O)N2CC3(CCOCC3)C2)cn1)c1cnccn1` [Example 131, 7-oxa-2-azaspiro[3.5]non-2-yl(2-{[2-(pyrazin-2-yl)propan-2-yl]amino}pyrimidin-5-yl)methanone], the half-maximal inhibitory concentration (IC50) is less than 0.094 nM in assay [1] and 0.838 nM in assay [2]. On the same counts, the results for `C[C@H](Nc1ncc(C(=O)N2CCC3(CCOCC3)C2)cn1)c1cncnc1` [Example 149] are 0.677 nM and 1.3 nM.

Consider `Cc1ccc(CNc2ncc(C(=O)N3CCC4(CCOCC4)C3)cn2)cn1` [Example 137], for which the IC50 in assay [1] stood at 5.24 nM; in assay [2], 5.02 nM. On the same counts, the results for `O=C(c1cnc(NC2(c3cncnc3)CC2)nc1)N1CCC2(CC1)COC2` [Example 59] are 47.4 nM and 49.2 nM. For the compound `Cc1ccc([C@H](C)Nc2ncc(C(=O)N3CCC4(CCOCC4)C3)cn2)cn1` [Example 140], the half-inhibitory concentration (IC50) in assay [1] stood at 0.283 nM; in assay [2], 0.95 nM.

As for `O=C(c1cnc(NC2(c3cnccn3)CC2)nc1)N1CCC2(CCOCC2)C1` [Example 157], the concentration for half-maximal inhibition (IC50) stood at 0.875 nM in assay [1] and 12.9 nM in assay [2]. On the same counts, the results for `O=C(c1cnc(NC2(c3cnccn3)CCC2)nc1)N1CCC2(CCOCC2)C1` [Example 130, 8-oxa-2-azaspiro[4.5]dec-2-yl(2-{[1-(pyrazin-2-yl)cyclobutyl]amino}pyrimidin-5-yl)methanone] are less than 0.041 nM and 0.743 nM.

Regarding `C[C@@H](Nc1ncc(C(=O)N2CCC3(CCOCC3)C2)cn1)c1cncnc1` [Example 150], the IC50 in assay [1] was 27.8 nM; in assay [2], 35.6 nM.

For the compound `CC(C)(Nc1ncc(C(=O)N2CCC3(CCOCC3)C2)cn1)c1cncnc1` [Example 143, 8-oxa-2-azaspiro[4.5]dec-2-yl(2-{[2-(pyrimidin-5-yl)propan-2-yl]amino}pyrimidin-5-yl)methanone], the IC50 was determined as 0.082 nM in assay [1] and 1.22 nM in assay [2]. The matching figures for `O=C(c1cnc(NCc2cnccn2)nc1)N1CC2(CCOCC2)C1` [Example 135]: 3.38 nM and 3.7 nM. The matching figures for `C[C@H](Nc1ncc(C(=O)N2CC3(CCOCC3)C2)cn1)c1cnccn1` [Example 147]: 0.65 nM and 1.89 nM. In the case of `CS(=O)(=O)C1CCCN(C(=O)c2cnc(NC3(c4cncnc4)CC3)nc2)C1` (single isomer, unassigned) [Example 200], the half-inhibitory concentration (IC50) in assay [1] came to 10.6 nM; in assay [2], 32.6 nM. The matching figures for `O=C(c1cnc(NCc2cncnc2C(F)(F)F)nc1)N1CCC2(CCOCC2)C1` [Example 166]: 32.6 nM and 39.1 nM. On the same counts, the results for `C[C@H](Nc1ncc(C(=O)N2CCC3(CCOCC3)C2)cn1)c1ccncn1` [Example 155] are 4.39 nM and 27.5 nM.

Regarding `CC1(CO)CCCN(C(=O)c2cnc(NC3(c4cncnc4)CC3)nc2)C1` (centres unmarked) [Example 108], the values for the IC50 in assay [1] and in assay [2] were 387 nM and 452 nM, respectively. In the case of `O=C(c1cnc(NC2(c3cncnc3)CC2)nc1)N1CCCC1` [Example 87], the results for the IC50 in assay [1] and in assay [2] were 79.8 nM and 68 nM, respectively. Take `O=C(c1cnc(NC2(c3cncnc3)CC2)nc1)N1CCC(C(F)(F)F)C1` (single isomer, unassigned) [Example 193]: the IC50 in assay [1] is 7.12 nM; in assay [2], 5.39 nM. The matching figures for `CC(Nc1ncc(C(=O)N2CC3(CCOCC3)C2)cn1)c1cncnc1` (centres unmarked) [Example 184]: 1.45 nM and 2.21 nM. In turn, `O=C(c1cnc(NC2(c3cncnc3)CC2)nc1)N1CCCC(C(F)(F)F)C1` (centres unmarked) [Example 74] displayed an IC50 in assay [1] of 3.62 nM. The same measure, in the same setting: next, `Cc1ccc(C2(Nc3ncc(C(=O)N4CC5(CCOCC5)C4)cn3)CC2)cn1` [Example 176]: 0.911 nM. As for `Cc1ccc(C(C)Nc2ncc(C(=O)N3CCC4(CCOCC4)C3)cn2)cn1` (centres unmarked) [Example 162], the half-maximal inhibitory concentration (IC50) in assay [1] worked out at 0.629 nM; in assay [2] it was 2.97 nM.

For `COC1CCCN(C(=O)c2cnc(NC3(c4cncnc4)CC3)nc2)C1` (centres unmarked) [Example 96], the IC50 amounted to 10.9 nM in assay [1] and 9.86 nM in assay [2]. In assay [1], `Cc1cnc(C(C)(C)Nc2ncc(C(=O)N3CC4(CCOCC4)C3)cn2)cn1` [Example 180] had a half-inhibitory concentration (IC50) of 0.196 nM. This lies in the sub-nanomolar range. The same measure, in the same setting: next, `O=C(c1cnc(NC2(c3cncnc3)CC2)nc1)N1CC2CCC1CO2` (centres unmarked) [Example 105]: 36 nM. The same measure, in the same setting: the value for `C[C@H](Nc1ncc(C(=O)N2CCC3(CCOCC3)C2)cn1)c1ccnnc1` [Example 153] was 4.29 nM; that for `O=C(c1cnc(NC2(c3cncnc3)CC2)nc1)N1CCCC1C(F)(F)F` (centres unmarked) [Example 73] was 829 nM. Still for that read-out and setting: next, `O=C(c1cnc(NC2(c3cncnc3)CC2)nc1)N1CCC2(CCCO2)CC1` [Example 56]: 24.9 nM. Take `O=C(c1cnc(NC2(c3cncnc3)CC2)nc1)N1CCC2(CCOCC2)C1` [Example 188, 8-oxa-2-azaspiro[4.5]dec-2-yl(2-{[1-(pyrimidin-5-yl)cyclopropyl]amino}pyrimidin-5-yl)methanone]: the IC50 in assay [1] was determined as 0.277 nM; in assay [2], 1.17 nM. In turn, `CC1COCCN(C(=O)c2cnc(NC3(c4cncnc4)CC3)nc2)C1` (centres unmarked) [Example 38] had a half-inhibitory concentration (IC50) in assay [1] of 62.6 nM. The compound `O=C(c1cnc(NC2(c3cncnc3)CC2)nc1)N1CC2CCCC2C1` (centres unmarked) [Example 69] had a half-inhibitory concentration (IC50) in assay [1] of 1.85 nM. Compared with the last compound, the IC50 is about 34-fold lower. For `C[C@@H](Nc1ncc(C(=O)N2CCC3(CCOCC3)C2)cn1)c1ccnnc1` [Example 154], the IC50 in assay [1] worked out at 337 nM.

`C[C@H]1CN(C(=O)c2cnc(NCc3cccnc3)nc2)C[C@@H]1CO` [Example 6] came in with a half-maximal inhibitory concentration (IC50) in assay [1] of 17.9 nM. Still for that read-out and setting: next, `O=C(c1cnc(NCc2cccnc2)nc1)N1CCC2(CCOCC2)C1` [Example 1]: 1.31 nM; `CC1(CO)CCN(C(=O)c2cnc(NC3(c4cncnc4)CC3)nc2)CC1` [Example 83]: 55.1 nM; `Cc1ccc(C(C)Nc2ncc(C(=O)N3CC4(CCOCC4)C3)cn2)cn1` (centres unmarked) [Example 163]: 1.77 nM.

`C[C@H]1C[C@@H](O)CN(C(=O)c2cnc(NC3(c4cncnc4)CC3)nc2)C1` [Example 86]: the IC50 in assay [1] stood at 24.2 nM. Still for that read-out and setting: the value for `CCOCC1(F)CCN(C(=O)c2cnc(NC3(c4cncnc4)CC3)nc2)CC1` [Example 92] was 50.9 nM; that for `O=C(c1cnc(NC2(c3cncnc3)CC2)nc1)N1CCCC[C@H]1CCO` [Example 80] was 545 nM.

In the case of `O=C(c1cnc(NC2(c3cncnc3)CC2)nc1)N1CCN2CCCCCC2C1` (centres unmarked) [Example 41], in assay [1], the IC50 was determined as 45 nM. This IC50 is about 12-fold lower than that of the compound before. In the case of `O=C(c1cnc(NCc2cncnc2)nc1)N1CC2(CCOCC2)C1` [Example 186], the half-inhibitory concentration (IC50) in assay [1] was determined as 5.48 nM; in assay [2], 4.63 nM.

In assay [1], `CCC1(OC)CCN(C(=O)c2cnc(NC3(c4cncnc4)CC3)nc2)C1` (centres unmarked) [Example 192] had a 50% inhibitory concentration (IC50) of 2.21 nM. This counts as single-digit nanomolar.

For `CC1(O)CCCN(C(=O)c2cnc(NCc3cccnc3)nc2)C1` (centres unmarked) [Example 26], half-maximal inhibition in assay [1] (IC50) was put at 1230 nM. Same read-out and setting: next, `O=C(c1cnc(NCc2cnc(C(F)(F)F)nc2)nc1)N1CCC2(CCOCC2)C1` [Example 168]: 192 nM; `O=C(c1cnc(NC2(c3cncnc3)CC2)nc1)N1CCC(F)CC1` [Example 68]: 8.13 nM; `O=C(c1cnc(NC2(c3cncnc3)CC2)nc1)N1CC2(CC(O)C2)C1` [Example 102]: 40.8 nM. In assay [1], `O=C(c1cnc(NCc2cccnc2)nc1)N1CC(O)C1` [Example 16] returned a concentration for half-maximal inhibition (IC50) of 323 nM. In the case of `O=C(c1cnc(NC2(c3cncnc3)CC2)nc1)N1CCC(C2(O)CCCC2)CC1` [Example 101], the IC50 in assay [1] was 1360 nM. Same read-out and setting: next, `CO[C@@H]1CCN(C(=O)c2cnc(NC3(c4cncnc4)CC3)nc2)C1` [Example 79]: 21.3 nM.

Values taken from patent US10906888B2, “Pyrimidine carboxamides as inhibitors of Vanin-1 enzyme” (Pfizer Inc., priority 2016, dated 2021).
